# Measurements as given in ChEMBL document CHEMBL3352279, “Synthesis and Structure-Activity Relationship Study of 5a-Carbasugar Analogues of SL0101” (ACS Med Chem Lett, 2015).
# Activity calls are given as the source filed them. No cut-off for these calls is given here.
# Legend:
# [1] = biological target: Ribosomal protein S6 kinase alpha-3 (Homo sapiens, UniProt P51812); test: Inhibition of RSK2 (unknown origin) assessed as phosphorylation by Western lightning enhanced chemiluminescent reagent/HRP activity assay
# MCF7 [2] = test: Antiproliferative activity against human MCF7 cells at 100 uM after 48 hrs by CellTiterGlo assay; format: functional
# [3] = biological target: Ribosomal protein S6 kinase alpha-1 (Homo sapiens) (UniProt Q15418); test: Inhibition of RSK in PMA-stimulated human MCF7 cells assessed as increase in phosphorylation of eEF2 at 100 uM by immunoblotting analysis; format: cell-based
# MCF7 [4] = test: Reduction in cyclin D1 in PMA-stimulated human MCF7 cells at 100 uM by immunoblotting analysis; format: functional, cell-based
# MCF7 [5] = test: Increase in phosphorylation motif of protein kinase A in human MCF7 cells at 100 uM by immunoblotting analysis; format: cell-based
# [6] = biological target: Ribosomal protein S6 kinase alpha-1 (Homo sapiens) (UniProt Q15418); test: Inhibition of RSK in PMA-stimulated human MCF7 cells assessed as decrease in intensity of band at 65 and 27 kDa at 100 uM by immunoblotting analysis; format: cell-based
# MCF7 [7] = test: Antiproliferative activity against human MCF7 cells at 50 uM after 48 hrs by CellTiterGlo assay; format: functional, cell-based
# [8] = biological target: Ribosomal protein S6 kinase alpha-1 (Homo sapiens) (UniProt Q15418); test: Inhibition of RSK in PMA-stimulated human MCF7 cells assessed as increase in phosphorylation of eEF2 at 50 uM by immunoblotting analysis; format: cell-based
# MCF7 [9] = test: Reduction in cyclin D1 in PMA-stimulated human MCF7 cells at 50 uM by immunoblotting analysis; format: functional, cell-based
# MCF7 [10] = test: Increase in phosphorylation motif of protein kinase A in human MCF7 cells at 50 uM by immunoblotting analysis; format: cell-based
# [11] = biological target: Protein kinase C (PKC) (Homo sapiens) (UniProt O94806+P41743+P17252+P05129+Q05655+P05771+Q05513+Q02156+P24723+Q15139+Q04759); test: Effect on phosphorylation motif of protein kinase C in human MCF7 cells at 50 uM by immunoblotting analysis; format: cell-based
# MCF7 [12] = test: Effect on phosphorylation motif of tyrosine kinase in human MCF7 cells at 50 uM by immunoblotting analysis; format: cell-based
# MCF-10A [13] = test: Antiproliferative activity against human MCF10A cells at 50 uM after 48 hrs by CellTiterGlo assay; format: functional, cell-based
# [14] = biological target: Ribosomal protein S6 kinase alpha-1 (Homo sapiens) (UniProt Q15418); test: Inhibition of RSK in PMA-stimulated human MCF7 cells assessed as decrease in intensity of band at 65 and 27 kDa at 50 uM by immunoblotting analysis; format: cell-based
# MCF7 [15] = test: Antiproliferative activity against human MCF7 cells at 25 uM after 48 hrs by CellTiterGlo assay; format: functional; details: MCF7, 48 h
# MCF-10A [16] = test: Antiproliferative activity against human MCF10A cells at 25 uM after 48 hrs by CellTiterGlo assay; format: functional, cell-based
# MCF-10A [17] = test: Antiproliferative activity against human MCF10A cells at 100 uM after 48 hrs by CellTiterGlo assay; format: functional, cell-based
# Chain of Ribosomal protein S6 kinase alpha-1 (Homo sapiens) (Q15418 whole entry): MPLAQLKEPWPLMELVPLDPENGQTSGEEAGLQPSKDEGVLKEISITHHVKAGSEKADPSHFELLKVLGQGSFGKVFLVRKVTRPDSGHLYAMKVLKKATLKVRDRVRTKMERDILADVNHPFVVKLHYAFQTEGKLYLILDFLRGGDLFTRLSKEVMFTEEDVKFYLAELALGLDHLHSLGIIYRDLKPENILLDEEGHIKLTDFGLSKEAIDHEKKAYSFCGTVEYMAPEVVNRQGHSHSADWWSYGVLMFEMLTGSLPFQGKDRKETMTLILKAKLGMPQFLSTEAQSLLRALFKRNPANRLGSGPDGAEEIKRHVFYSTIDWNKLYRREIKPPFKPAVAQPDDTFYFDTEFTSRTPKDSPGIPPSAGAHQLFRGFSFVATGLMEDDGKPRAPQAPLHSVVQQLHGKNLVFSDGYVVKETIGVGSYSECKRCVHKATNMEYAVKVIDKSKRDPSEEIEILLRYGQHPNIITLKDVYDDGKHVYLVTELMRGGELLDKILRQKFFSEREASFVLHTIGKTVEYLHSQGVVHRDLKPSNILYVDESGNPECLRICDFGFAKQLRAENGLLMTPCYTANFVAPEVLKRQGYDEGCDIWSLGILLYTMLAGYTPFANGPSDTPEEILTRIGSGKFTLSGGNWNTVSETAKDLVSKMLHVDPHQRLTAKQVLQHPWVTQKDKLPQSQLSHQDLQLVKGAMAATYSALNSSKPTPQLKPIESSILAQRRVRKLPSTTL
# Chain of Ribosomal protein S6 kinase alpha-3 (P51812 whole entry): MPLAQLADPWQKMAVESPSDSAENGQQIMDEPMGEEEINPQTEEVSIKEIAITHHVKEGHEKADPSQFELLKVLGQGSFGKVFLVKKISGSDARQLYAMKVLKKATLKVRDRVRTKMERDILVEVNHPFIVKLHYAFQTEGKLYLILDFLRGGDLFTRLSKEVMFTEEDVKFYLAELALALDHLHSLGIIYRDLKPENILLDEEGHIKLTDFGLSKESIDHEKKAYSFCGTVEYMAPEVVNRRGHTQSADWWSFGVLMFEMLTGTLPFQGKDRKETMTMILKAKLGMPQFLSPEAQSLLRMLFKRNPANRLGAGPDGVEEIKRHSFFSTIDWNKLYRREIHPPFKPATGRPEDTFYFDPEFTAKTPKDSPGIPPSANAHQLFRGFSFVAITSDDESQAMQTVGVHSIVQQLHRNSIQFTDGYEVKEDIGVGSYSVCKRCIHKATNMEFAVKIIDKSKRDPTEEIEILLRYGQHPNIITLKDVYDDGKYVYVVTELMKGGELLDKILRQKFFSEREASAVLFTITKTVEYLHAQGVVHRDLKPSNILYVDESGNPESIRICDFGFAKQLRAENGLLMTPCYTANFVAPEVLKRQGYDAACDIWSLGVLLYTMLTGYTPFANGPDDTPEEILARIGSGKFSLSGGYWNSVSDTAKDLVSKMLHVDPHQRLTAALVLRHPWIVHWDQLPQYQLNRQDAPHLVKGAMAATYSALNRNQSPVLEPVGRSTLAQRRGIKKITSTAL
compound,measurement,setting,value
CC(=O)O[C@H]1[C@@H](O)[C@H](Oc2c(-c3ccc(O)cc3)oc3cc(O)cc(O)c3c2=O)CC[C@@H]1OC(C)=O,IC50,[1]; read-out: IC50,8.93 µM
CC(=O)O[C@H]1[C@@H](O)[C@H](OC(C)=O)[C@@H](C)C[C@@H]1Oc1c(-c2ccc(O)cc2)oc2cc(O)cc(O)c2c1=O,IC50,[1],Not Active
CC(=O)O[C@@H]1[C@@H](OC(C)=O)[C@@H](O)[C@H](Oc2c(-c3ccc(O)cc3)oc3cc(O)cc(O)c3c2=O)O[C@H]1C,inhibition at 100 µM,"MCF7 [2]; MCF7, 48 h",60%
same,Activity,[3],Active
same,inhibition,MCF7 [4],Active
same,Activity,MCF7 [5],Active
same,inhibition,[6],Active
CC(=O)O[C@@H]1[C@@H](O)[C@@H](OC(C)=O)[C@H](Oc2c(-c3ccc(O)cc3)oc3cc(O)cc(O)c3c2=O)C[C@H]1C,IC50,[1]; read-out: IC50,1.6 µM
same,inhibition,MCF7 [7],Active
same,Activity,[8],Active
same,Activity,MCF7 [9],inactive
same,Activity,MCF7 [10],inactive
same,Activity,[11],inactive
same,Activity,MCF7 [12],inactive
same,inhibition,MCF-10A [13],Active
same,inhibition,[14],inactive
CC(=O)O[C@@H]1[C@H](O)[C@@H](Oc2c(-c3ccc(O)cc3)oc3cc(O)cc(O)c3c2=O)C[C@H](C)[C@H]1OC(C)=O,IC50,[1],Not Active
CC(=O)O[C@@H]1[C@@H](OC(C)=O)[C@@H](O)[C@H](Oc2c(-c3ccc(O)cc3)oc3cc(O)cc(O)c3c2=O)C[C@H]1C,IC50,[1]; read-out: IC50,0.27 µM
same,inhibition at 25 µM,MCF7 [15],60%
same,inhibition,MCF-10A [16],Active
same,inhibition,MCF7 [7],Active
same,Activity,[8],Active
same,Activity,MCF7 [9],inactive
same,Activity,MCF7 [10],inactive
same,Activity,[11],inactive
same,Activity,MCF7 [12],inactive
same,inhibition,MCF-10A [13],Active
same,inhibition,[14],inactive
CC(=O)O[C@H]1[C@H](O)[C@H](O)[C@@H](Oc2c(-c3ccc(O)cc3)oc3cc(O)cc(O)c3c2=O)C[C@@H]1C,IC50,[1],Not Active
same,inhibition,MCF7 [2],inactive
same,inhibition,MCF-10A [17],inactive
CC(=O)O[C@@H]1[C@@H](O)[C@@H](O)[C@H](Oc2c(-c3ccc(O)cc3)oc3cc(O)cc(O)c3c2=O)C[C@H]1C,IC50,[1]; read-out: IC50,1.23 µM
same,inhibition,MCF7 [2],Active
same,inhibition,MCF-10A [17],Active
CC(=O)O[C@@H]1[C@H](O)[C@@H](Oc2c(-c3ccc(O)cc3)oc3cc(O)cc(O)c3c2=O)CC[C@H]1OC(C)=O,IC50,[1],Not Active
